This note sets out measurements from paper PMC7190985 (Frontiers in Microbiology, 2020).

Structures are written as SMILES. pIC50: −log10 of the molar value. Entries after “also recorded” stand apart in the source; their conditions may differ.

One data set is described as follows: in vitro. The following applies: human.
Another data set has as its system VACV-WR-GFP virus. Briefly: microbe, parasite or virus in culture. It is filed as cell-based. The following applies: Orthopoxvirus vaccinia, HeLa, 24 h; for pIC50: read-out: IC50 (50% inhibition of viral spread); for IC90: read-out: IC90 (90% inhibition of viral spread).
The next data set concerns VACV WR-Luc virus. It is filed as cell-based.
Another data set concerns VACV WR A4-YFP. It is filed as cell-based, vaccinia virus.
Another data set deals with luciferase (Photinus pyralis, UniProt P08659). The data set is classed as biochemical.
A further data set has as its system VACV IHDJ virus. It is filed as cell-based, vaccinia virus.
A further data set has as its system VACV WR. The data set is classed as cell-based, vaccinia virus.

Sequence of luciferase (P08659 whole entry): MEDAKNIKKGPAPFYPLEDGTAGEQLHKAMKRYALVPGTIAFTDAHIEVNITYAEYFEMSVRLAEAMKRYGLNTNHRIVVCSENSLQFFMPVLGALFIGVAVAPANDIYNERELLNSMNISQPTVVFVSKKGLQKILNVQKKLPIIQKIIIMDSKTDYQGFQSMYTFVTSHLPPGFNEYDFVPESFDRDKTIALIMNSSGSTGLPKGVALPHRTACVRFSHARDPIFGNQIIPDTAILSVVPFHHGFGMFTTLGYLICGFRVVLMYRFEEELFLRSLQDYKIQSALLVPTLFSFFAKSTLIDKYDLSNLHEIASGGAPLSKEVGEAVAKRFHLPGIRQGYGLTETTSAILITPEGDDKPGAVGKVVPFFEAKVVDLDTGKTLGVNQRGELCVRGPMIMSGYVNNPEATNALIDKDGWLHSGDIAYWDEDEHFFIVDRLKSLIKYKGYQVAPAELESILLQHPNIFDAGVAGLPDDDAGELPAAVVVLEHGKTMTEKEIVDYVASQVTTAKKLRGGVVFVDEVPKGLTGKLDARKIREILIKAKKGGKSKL

Consider `O=C1CN(C(=O)c2nccs2)C(c2cc(Cl)cc(Cl)c2)c2cc(Cl)ccc2N1` (centres unmarked) [PA24], for which the CC50 in “in vitro” is over 400000 nM. In the data set on VACV-WR-GFP virus, the pIC50 (in general, −log10 of the IC50, conventionally taken in molar units) was 6.00 and the IC90 (commonly the concentration at which the effect reaches the 90% level) is 1800 nM. For the same compound, the “viral entry (luciferase RLU)” value in the data set on VACV WR-Luc virus was “did not markedly decrease viral entry; also recorded: reduced viral entry”. In addition, the “virus-loaded actin tails per cell” value in the data set with VACV WR A4-YFP is “significant decrease in virus-loaded tails”.

In the case of `O=C1CN(C(=O)c2nccs2)C(c2cccc(Cl)c2)c2cc(Br)ccc2N1` (centres unmarked) [PA104], the “luciferase enzyme activity (RLU)” value on luciferase is recorded as “does not impact luciferase enzyme activity”. Also, the “MV yield / MV formation” value in the data set on VACV IHDJ virus is given as “small reduction in MV yield”. In the data set “in vitro”, this compound registered a CC50 of over 400000 nM. Also, in the data set on VACV-WR-GFP virus, the pIC50 is 6.30 and the IC90 was 1300 nM. In the data set with VACV WR-Luc virus, the “luciferase activity (viral entry)” value is “observable reduction in luciferase activity” and the “viral entry (luciferase RLU)” value is “a decrease in viral entry was observed”. For the same compound, the “viral plaque size, wild-type virus” value in the data set on VACV WR is listed as “maximal inhibition of plaque size”. Further, the “virus-loaded actin tails per cell” value in the data set with VACV WR A4-YFP was “significant decrease in virus-loaded tails”.

As for `CCC(=O)N1CC(=O)Nc2ccc(Br)cc2C1c1ccccc1` (centres unmarked) [Retro 1], the CC50 in “in vitro” was over 400000 nM. In addition, in the data set on VACV-WR-GFP virus, the pIC50 is 5.52 and the IC90 was 7200 nM.

In the data set “in vitro”, `Cc1ccc(/C=N/c2ccccc2C(=O)Nc2ccccc2)s1` [Retro 2] yielded a CC50 of over 400000 nM. In the data set with VACV-WR-GFP virus, the pIC50 is 5.66 and the IC90 stood at 5500 nM.

On to `O=C(NN1C(=O)[C@@H]2[C@@H]3C=C[C@@H]([C@H]4C[C@@H]34)[C@@H]2C1=O)c1ccc(C(F)(F)F)cc1` [ST-246], for which the CC50 in “in vitro” is over 400000 nM. In addition, in the data set with VACV-WR-GFP virus, the pIC50 was 7.40 and the IC90 stood at 100 nM.
